Measured values: US9108957B2 (MITSUBISHI TANABE PHARMA CORPORATION, priority 2009, dated 2015)

These compounds were tested against human recombinant TPK1 (Homo sapiens, UniProt P49841) (assay: Inhibitory activity against P-GS1 phosphorylation by TPK1 (Kinase Glo luminescence)). Conditions: 7.5 μM P-GS1, 10 μM ATP, 25° C. for 16 hours, Kinase Glo Reagent luminescent signal.
Format: biochemical
Summary of the method: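 Human recombinant TPK1 phosphorylated 7.5 μM P-GS1 with 10 μM ATP in 100 mM HEPES-NaOH pH 7.2 with Mg, EGTA, DTT, Tween 20 and 1% DMSO final, for 16 h at 25° C. Remaining ATP was read by Kinase Glo luminescence. IC50 was normalised to no-enzyme (0%) and no-compound (100%) controls.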

human recombinant TPK1, sequence (P49841 whole entry): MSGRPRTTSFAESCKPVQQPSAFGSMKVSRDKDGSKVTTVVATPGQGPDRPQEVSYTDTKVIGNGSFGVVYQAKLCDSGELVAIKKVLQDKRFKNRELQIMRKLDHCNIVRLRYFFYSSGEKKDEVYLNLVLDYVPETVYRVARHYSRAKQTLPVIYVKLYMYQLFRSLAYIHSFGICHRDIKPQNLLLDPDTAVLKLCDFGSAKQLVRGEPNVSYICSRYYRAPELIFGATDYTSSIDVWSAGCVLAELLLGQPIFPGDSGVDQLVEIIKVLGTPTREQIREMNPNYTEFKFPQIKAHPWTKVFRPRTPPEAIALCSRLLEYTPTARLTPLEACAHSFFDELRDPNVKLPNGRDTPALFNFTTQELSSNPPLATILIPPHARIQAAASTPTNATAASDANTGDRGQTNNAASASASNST

| Compound | IC50 [nM] |
| --- | --- |
| Cn1c(N2CCCOCC2)nc(-c2ccncc2F)cc1=O [Compound A001, 6-(3-fluoropyridin-4-yl)-3-methyl-2-(1,4-oxazepan-4-yl)pyrimidin-4(3H)-one] | 27.4 |
| Cn1c(N2CCCO[C@H](c3ccc(C(N)=O)cc3)C2)nc(-c2ccncn2)cc1=O [Compound A060, (R)-2-[2-(4-aminocarbonylphenyl)-1,4-oxazepan-4-yl]-3-methyl-6-(pyrimidin-4-yl)pyrimidin-4(3H)-one] | 252 |
| Cn1c(N2CCOC(c3ccccc3F)CC2)nc(-c2ccncc2)cc1=O (stereo not drawn) [Compound A110, 2-(7-(2-fluorophenyl)-1,4-oxazepan-4-yl)-3-methyl-6-(pyridin-4-yl)pyrimidin-4(3H)-one] | 29.2 |
| Cn1c(N2CCCN(c3ccc(F)cc3)CC2)nc(-c2ccncn2)cc1=O [Compound A004, 2-[4-(4-fluorophenyl)-1,4-diazepan-1-yl]-3-methyl-6-(pyrimidin-4-yl)pyrimidin-4(3H)-one] | 35.1 |
| CC1COCCN(c2nc(-c3ccncc3)cc(=O)n2C)C1 (stereo not drawn) [Compound A088, 2-(6-methyl-1,4-oxazepan-4-yl)-3-methyl-6-(pyridin-4-yl)pyrimidin-4(3H)-one] | 176 |
| Cn1c(N2CCOC(c3ccc(-c4ncno4)cc3)CC2)nc(-c2ccncn2)cc1=O (single isomer, unassigned; (+)) [Compound A107, (+)-2-[7-[4-(1,2,4-oxadiazol-5-yl)-phenyl]-1,4-oxazepan-4-yl]-3-methyl-6-(pyrimidin-4-yl)pyrimidin-4(3H)-one] | 23 |
| CC1CCOCCN1c1nc(-c2ccncn2)cc(=O)n1C (stereo not drawn) [Compound A070, 3-methyl-2-(5-methyl-1,4-oxazepan-4-yl)-6-(pyrimidin-4-yl)pyrimidin-4(3H)-one] | 17.3 |
| Cc1nc(-c2cccc([C@H]3CN(c4nc(-c5ccncc5)cc(=O)n4C)CCCO3)c2)no1 [Compound A042, (S)-2-[2-[3-(5-methyl-1,2,4-oxadiazol-3-yl)-phenyl]-1,4-oxazepan-4-yl]-3-methyl-6-(pyridin-4-yl)pyrimidin-4(3H)-one] | 44.6 |
| Cn1c(N2CCCO[C@@H](c3cccc(C#N)c3)C2)nc(-c2ccncn2)cc1=O [Compound A039, (S)-2-[2-(3-cyanophenyl)-1,4-oxazepan-4-yl]-3-methyl-6-(pyrimidin-4-yl)pyrimidin-4(3H)-one] | 31.9 |
| Cn1c(N2CCCO[C@H](c3ccc(F)cc3)C2)nc(-c2ccncc2F)cc1=O [Compound A054, (R)-2-[2-(4-fluorophenyl)-1,4-oxazepan-4-yl]-6-(3-fluoropyridin-4-yl)-3-methylpyrimidin-4(3H)-one] | 111 |
| Cn1c(N2CCOC(c3ccc(-c4ncno4)cc3)CC2)nc(-c2ccncn2)cc1=O (single isomer, unassigned; (-)) [Compound A116, (−)-2-[7-[4-(1,2,4-oxadiazol-5-yl)-phenyl]-1,4-oxazepan-4-yl]-3-methyl-6-(pyrimidin-4-yl)pyrimidin-4(3H)-one] | 48 |
| Cn1c(N2CCOC(c3ccc(Br)cc3)CC2)nc(-c2ccncn2)cc1=O (single isomer, unassigned; (-)) [Compound A122, (−)-2-(7-(4-bromophenyl)-1,4-oxazepan-4-yl)-3-methyl-6-(pyrimidin-4-yl)pyrimidin-4(3H)-one] | 114 |
| C[C@@H]1COCCCN1c1nc(-c2ccncn2)cc(=O)n1C [Compound A064, (R)-3-methyl-2-(3-methyl-1,4-oxazepan-4-yl)-6-(pyrimidin-4-yl)pyrimidin-4(3H)-one] | 23.2 |
| CCC1CCOCCN1c1nc(-c2ccncc2F)cc(=O)n1C (stereo not drawn) [Compound A072, 6-(3-fluoropyridin-4-yl)-3-methyl-2-(5-ethyl-1,4-oxazepan-4-yl)pyrimidin-4(3H)-one] | 65 |
| Cn1c(N2CCCO[C@@H](c3cccc(C(N)=O)c3)C2)nc(-c2ccncc2)cc1=O [Compound A033, (S)-2-[2-(3-aminocarbonylphenyl)-1,4-oxazepan-4-yl]-3-methyl-6-(pyridin-4-yl)pyrimidin-4(3H)-one] | 23.4 |
| Cc1nc(-c2ccc(C3COCCN(c4nc(-c5ccncn5)cc(=O)n4C)C3)cc2)no1 (stereo not drawn) [Compound A086, 2-[6-[4-(5-methyl-1,2,4-oxadiazol-3-yl)-phenyl]-1,4-oxazepan-4-yl]-3-methyl-6-(pyrimidin-4-yl)pyrimidin-4(3H)-one] | 35.8 |
| Cc1nc(-c2ccc(C3CCN(c4nc(-c5ccncn5)cc(=O)n4C)CCO3)cc2)no1 (single isomer, unassigned; (-)) [Compound A112, (−)-2-[7-[4-(5-methyl-1,2,4-oxadiazol-3-yl)-phenyl]-1,4-oxazepan-4-yl]-3-methyl-6-(pyrimidin-4-yl)pyrimidin-4(3H)-one] | 30 |
| Cn1c(N2CCCO[C@H](c3cccc(Br)c3)C2)nc(-c2ccncn2)cc1=O [Compound A043, (R)-2-[2-(3-bromophenyl)-1,4-oxazepan-4-yl]-3-methyl-6-(pyrimidin-4-yl)pyrimidin-4(3H)-one] | 51 |
| Cn1c(N2CCCO[C@H](c3cccc(C(N)=O)c3)C2)nc(-c2ccncc2)cc1=O [Compound A048, (R)-2-[2-(3-aminocarbonylphenyl)-1,4-oxazepan-4-yl]-3-methyl-6-(pyridin-4-yl)pyrimidin-4(3H)-one] | 68.8 |

Compounds with a lower IC50, results first:

| IC50 [nM] | Compound |
| --- | --- |
| 11 | Cn1c(N2CCCO[C@@H](c3ccc(C(N)=O)cc3)C2)nc(-c2ccncc2)cc1=O [Compound A017, (S)-2-[2-(4-aminocarbonylphenyl)-1,4-oxazepan-4-yl]-3-methyl-6-(pyridin-4-yl)pyrimidin-4(3H)-one] |
| 12.5 | Cn1c(N2CCCO[C@@H](c3ccc(F)cc3)C2)nc(-c2ccncc2)cc1=O [Compound A022, (S)-2-[2-(4-fluorophenyl)-1,4-oxazepan-4-yl]-3-methyl-6-(pyridin-4-yl)pyrimidin-4(3H)-one] |
| 14.6 | Cn1c(N2CCCOC(c3ccccc3)C2)nc(-c2ccncn2)cc1=O (stereo not drawn) [Compound A026, 2-(2-phenyl-1,4-oxazepan-4-yl)-3-methyl-6-(pyrimidin-4-yl)pyrimidin-4(3H)-one] |
| 5.5 | Cn1c(N2CCOCCC2c2ccccc2)nc(-c2ccncc2F)cc1=O (stereo not drawn) [Compound A066, 6-(3-fluoropyridin-4-yl)-3-methyl-2-(5-phenyl-1,4-oxazepan-4-yl)pyrimidin-4(3H)-one] |
| 12 | Cn1c(N2CCCO[C@@H](c3ccc(Br)cc3)C2)nc(-c2ccncc2)cc1=O [Compound A021, (S)-2-[2-(4-bromophenyl)-1,4-oxazepan-4-yl]-3-methyl-6-(pyridin-4-yl)pyrimidin-4(3H)-one] |
| 10.8 | Cn1c(N2CCOCC(c3ccc(-c4ncno4)cc3)C2)nc(-c2ccncn2)cc1=O (stereo not drawn) [Compound A080, 2-[6-[4-(1,2,4-oxadiazol-5-yl)-phenyl]-1,4-oxazepan-4-yl]-3-methyl-6-(pyrimidin-4-yl)pyrimidin-4(3H)-one] |
| 5.5 | Cn1c(N2CCCO[C@@H](c3ccc(Br)cc3)C2)nc(-c2ccncc2F)cc1=O [Compound A010, (S)-2-[2-(4-bromophenyl)-1,4-oxazepan-4-yl]-6-(3-fluoropyridin-4-yl)-3-methylpyrimidin-4(3H)-one] |
| 10.3 | Cc1nc(-c2cccc([C@H]3CN(c4nc(-c5ccncc5F)cc(=O)n4C)CCCO3)c2)no1 [Compound A016, (S)-2-[2-[3-(5-methyl-1,2,4-oxadiazol-3-yl)-phenyl]-1,4-oxazepan-4-yl]-6-(3-fluoropyridin-4-yl)-3-methylpyrimidin-4(3H)-one] |
| 1.2 | Cn1c(N2CCOC[C@@H](c3ccc(Br)cc3)C2)nc(-c2ccncn2)cc1=O [Compound A074, (S)-2-[6-(4-bromophenyl)-1,4-oxazepan-4-yl]-3-methyl-6-(pyrimidin-4-yl)pyrimidin-4(3H)-one] |
| 8.15 | Cn1c(N2CCOC(c3ccccc3F)CC2)nc(-c2ccncc2F)cc1=O (stereo not drawn) [Compound A014, 2-[7-(2-fluorophenyl)-1,4-oxazepan-4-yl]-6-(3-fluoropyridin-4-yl)-3-methylpyrimidin-4(3H)-one] |
| 9.3 | Cn1c(N2CCCO[C@@H](c3cccc(C(N)=O)c3)C2)nc(-c2ccncn2)cc1=O [Compound A015, (S)-2-[2-(3-aminocarbonylphenyl)-1,4-oxazepan-4-yl]-3-methyl-6-(pyrimidin-4-yl)pyrimidin-4(3H)-one] |
| 4.5 | Cn1c(N2CCCO[C@@H](c3cccc(Br)c3)C2)nc(-c2ccncc2F)cc1=O [Compound A008, (S)-2-[2-(3-bromophenyl)-1,4-oxazepan-4-yl]-6-(3-fluoropyridin-4-yl)-3-methylpyrimidin-4(3H)-one] |
| 9.7 | CC1CCOCCN1c1nc(-c2ccncc2F)cc(=O)n1C (stereo not drawn) [Compound A067, 6-(3-fluoropyridin-4-yl)-3-methyl-2-(5-methyl-1,4-oxazepan-4-yl)pyrimidin-4(3H)-one] |
| 5.4 | Cn1c(N2CCOC(c3ccc(-c4ncon4)cc3)CC2)nc(-c2ccncc2F)cc1=O (single isomer, unassigned; (+)) [Compound A089] |
| 15.4 | Cc1nc(-c2ccc([C@H]3CN(c4nc(-c5ccncc5F)cc(=O)n4C)CCCO3)cc2)no1 [Compound A027, (S)-2-[2-[4-(5-methyl-1,2,4-oxadiazol-3-yl)-phenyl]-1,4-oxazepan-4-yl]-6-(3-fluoropyridin-4-yl)-3-methylpyrimidin-4(3H)-one] |
| 5.9 | Cc1noc(-c2ccc(C3COCCN(c4nc(-c5ccncc5F)cc(=O)n4C)C3)cc2)n1 (stereo not drawn) [Compound A077, 2-[6-[4-(3-methyl-1,2,4-oxadiazol-5-yl)-phenyl]-1,4-oxazepan-4-yl]-6-(3-fluoropyridin-4-yl)-3-methylpyrimidin-4(3H)-one] |
| 16.3 | COc1ccccc1C1CCN(c2nc(-c3ccncn3)cc(=O)n2C)CCO1 (stereo not drawn) [Compound A102, 2-[7-(2-methoxyphenyl)-1,4-oxazepan-4-yl]-3-methyl-6-(pyrimidin-4-yl)pyrimidin-4(3H)-one] |
